Experimental data from patent US11051515B2, “3-acyl-benzamides and their use as herbicides” (Bayer Aktiengesellschaft, priority 2017, dated 2021).

Key:
STEME [1] = assay: Pre-emergence action against STEME; format: in vivo, Stellaria media; conditions: Dosage 320 g/ha, pre-emergence
Outline: (§1)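 Seeds sown in sandy loam in wood-fiber pots and covered with soil. Greenhouse growth; visual damage scored after 3 weeks versus untreated controls (100% = dead, 0% = like control).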

ECHCG [2] = assay: Post-emergence action against ECHCG; format: in vivo, Echinochloa crus-galli; conditions: post-emergence, dosage 80 g/ha, visual assessment about 3 weeks after treatment vs untreated controls
Outline: (§2)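 Weeds grown in sandy loam in greenhouse, treated at one-leaf stage (2–3 weeks after sowing) with WP or EC formulations sprayed as aqueous suspension/emulsion at 600 to […] water with 0.2% wetting agent. Visual rating after about 3 weeks versus untreated controls, as % herbicidal action (100% = plants dead, 0% = like control).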

ECHCG [3] = assay: Pre-emergence action against ECHCG; format: in vivo, Echinochloa crus-galli; conditions: pre-emergence, dosage 320 g/ha, scored visually after 3 weeks vs untreated controls
Outline: as §1

CYPES [4] = assay: Post-emergence action against CYPES; format: in vivo, Cyperus esculentus; conditions: post-emergence, dosage 80 g/ha, visual assessment about 3 weeks after treatment vs untreated controls
Outline: as §2

ABUTH [5] = assay: Post-emergence action against ABUTH; format: in vivo, Abutilon theophrasti; conditions: post-emergence, dosage 80 g/ha, visual assessment about 3 weeks after treatment vs untreated controls
Outline: as §2

PHBPU [6] = assay: Pre-emergence action against PHBPU; format: in vivo, Pharbitis purpurea; conditions: Dosage 320 g/ha, pre-emergence
Outline: as §1

VIOTR [7] = assay: Post-emergence action against VIOTR; format: in vivo, Viola tricolor; conditions: post-emergence, dosage 80 g/ha
Outline: as §2

VERPE [8] = assay: Pre-emergence action against VERPE; format: in vivo, Veronica persica; conditions: Dosage 320 g/ha, pre-emergence
Outline: as §1

AVEFA [9] = assay: Pre-emergence action against AVEFA; format: in vivo, Avena fatua; conditions: dosage 320 g/ha, scored visually after 3 weeks vs untreated controls
Outline: as §1

ALOMY = assay: Pre-emergence action against ALOMY; format: in vivo, Alopecurus myosuroides; conditions: dosage 320 g/ha; pre-emergence; scored visually after 3 weeks vs untreated controls; 100% = plants have died, 0% = like control plants
Outline: as §1

MATIN [10] = assay: Post-emergence action against MATIN; format: in vivo, Matricaria inodora; conditions: post-emergence, dosage 80 g/ha, visual assessment about 3 weeks after treatment vs untreated controls
Outline: as §2

VIOTR [11] = assay: Pre-emergence action against VIOTR; format: in vivo, Viola tricolor; conditions: Dosage 320 g/ha, pre-emergence
Outline: as §1

SETVI [12] = assay: Pre-emergence action against SETVI; format: in vivo, Setaria viridis; conditions: pre-emergence, dosage 320 g/ha, scored visually after 3 weeks vs untreated controls
Outline: as §1

STEME [13] = assay: Post-emergence action against STEME; format: in vivo, Stellaria media; conditions: post-emergence, dosage 80 g/ha
Outline: as §2

AMARE [14] = assay: Pre-emergence action against AMARE; format: in vivo, Amaranthus retroflexus; conditions: pre-emergence, dosage 320 g/ha, scored visually after 3 weeks vs untreated controls
Outline: as §1

CYPES [15] = assay: Pre-emergence action against CYPES; format: in vivo, Cyperus esculentus; conditions: pre-emergence, dosage 320 g/ha, scored visually after 3 weeks vs untreated controls
Outline: as §1

VERPE [16] = assay: Post-emergence action against VERPE; format: in vivo, Veronica persica; conditions: dosage 80 g/ha
Outline: as §2

ABUTH [17] = assay: Pre-emergence action against ABUTH; format: in vivo, Abutilon theophrasti; conditions: pre-emergence, dosage 320 g/ha, scored visually after 3 weeks vs untreated controls
Outline: as §1

MATIN [18] = assay: Pre-emergence action against MATIN; format: in vivo, Matricaria inodora; conditions: Dosage 320 g/ha, pre-emergence
Outline: as §1

POLCO [19] = assay: Pre-emergence action against POLCO; format: in vivo, Polygonum convolvulus; conditions: Dosage 320 g/ha, pre-emergence
Outline: as §1

AMARE [20] = assay: Post-emergence action against AMARE; format: in vivo, Amaranthus retroflexus; conditions: post-emergence, dosage 80 g/ha, visual assessment about 3 weeks after treatment vs untreated controls
Outline: as §2

AVEFA [21] = assay: Post-emergence action against AVEFA; format: in vivo, Avena fatua; conditions: post-emergence, dosage 80 g/ha, visual assessment about 3 weeks after treatment vs untreated controls
Method: (§3) Seeds of monocotyledonous and dicotyledonous weed and crop plants are laid out in sandy loam soil in wood-fiber pots, covered with soil and cultivated in a greenhouse under good growth conditions. 2 to 3 weeks after sowing, the test plants are treated at the one-leaf stage. The compounds of the invention, formulated in the form of wettable powders (WP) or as emulsion concentrates (EC), are then sprayed onto the green parts of the plants in the form of an aqueous suspension or emulsion at a water application rate equating to […], with addition of 0.2% wetting agent. After the test plants have been left to stand in the greenhouse under optimal growth conditions for about 3 weeks, the action of the preparations is assessed visually in comparison to untreated controls (herbicidal action in percent (%): 100% activity=the plants have died, 0% activity=like control plants). […] At the same time, inventive compounds leave Gramineae crops such as barley, wheat, rye, millet/Sorghum, corn or rice virtually undamaged when applied post-emergence, even at high active ingredient dosages. In addition, some substances are also harmless to dicotyledonous crops such as soya, cotton, oilseed rape, sugar beet or potatoes. Some of the compounds according to the invention have high selectivity and are therefore suitable for controlling unwanted vegetation in agricultural crops by the post-emergence method. The data of Tables B18 to B34 below illustrate, in an exemplary manner, the […] herbicidal action of the compounds according to the invention, the herbicidal activity being stated in percent.

PHBPU [22] = assay: Post-emergence action against PHBPU; format: in vivo, Pharbitis purpurea; conditions: post-emergence, dosage 80 g/ha
Outline: as §2

POLCO [23] = assay: Post-emergence action against POLCO; format: in vivo, Polygonum convolvulus; conditions: post-emergence, dosage 80 g/ha
Method: as §3

SETVI [24] = assay: Post-emergence action against SETVI; format: in vivo, Setaria viridis; conditions: post-emergence, dosage 80 g/ha, visual assessment about 3 weeks after treatment vs untreated controls
Outline: as §2

Row | SMILES | Pre-emergence action against STEME (STEME [1]) | Post-emergence action against ECHCG (herbicidal action in percent) (ECHCG [2]) | Pre-emergence action against ECHCG (herbicidal activity) (ECHCG [3]) | Post-emergence action against CYPES (herbicidal action in percent) (CYPES [4]) | Post-emergence action against ABUTH (herbicidal action in percent) (ABUTH [5]) | Post-emergence action against VIOTR (VIOTR [7]) | Pre-emergence action against AVEFA (herbicidal activity) (AVEFA [9]) | Post-emergence action against MATIN (herbicidal action in percent) (MATIN [10]) | Pre-emergence action against VIOTR (VIOTR [11]) | SETVI (Table B8, pre-emergence herbicidal activity) (SETVI [12]) | Post-emergence action against STEME (STEME [13]) | Pre-emergence action against AMARE (herbicidal activity) (AMARE [14]) | Post-emergence action against VERPE (VERPE [16]) | Pre-emergence action against ABUTH (herbicidal activity) (ABUTH [17]) | Pre-emergence action against MATIN (MATIN [18]) | Pre-emergence action against POLCO (POLCO [19]) | Post-emergence action against AMARE (herbicidal action in percent) (AMARE [20]) | Post-emergence action against AVEFA (herbicidal action in percent) (AVEFA [21]) | Post-emergence action against PHBPU (PHBPU [22]) | Post-emergence action against SETVI (herbicidal action in percent) (SETVI [24]) | also measured
1 | CCCn1nnnc1NC(=O)c1ccc(S(C)(=O)=O)c(C(C)=O)c1C [3-7] | 90% | 100% | 100% | 80% | 100% | 100 | 90% | 100% | 100% | 100% | 100 | 100% | 100 | 100% | 100% | 90% | 100% | 100% | 90 | 100% | Pre-emergence action against PHBPU (PHBPU [6]): 90%; Pre-emergence action against VERPE (VERPE [8]): 100%; Pre-emergence action against ALOMY (herbicidal activity in percent) (ALOMY): 80%; Pre-emergence action against CYPES (herbicidal activity) (CYPES [15]): 100%; Post-emergence action against POLCO (POLCO [23]): 80
2 | CCCn1nnnc1NC(=O)c1ccc(S(C)(=O)=O)c(C(=O)C2CC2)c1C [3-9] | – | 100% | 100% | 80% | 80% | 100 | 90% | 100% | 100% | 100% | 100 | 100% | 100 | 100% | 90% | 80% | 100% | 100% | 100 | 100% | –
3 | CCCn1nnnc1NC(=O)c1ccc(SC)c(C(=O)C2CC2)c1Cl [3-123] | 90% | 100% | 90% | – | 80% | 100 | 100% | 100% | 100% | 100% | 100 | 100% | 100 | 100% | 100% | 80% | 100% | 100% | 90 | 90% | Pre-emergence action against VERPE (VERPE [8]): 100%; Pre-emergence action against CYPES (herbicidal activity) (CYPES [15]): 80%; Post-emergence action against POLCO (POLCO [23]): 90
